According to PMC10726354, “Design, Synthesis, and Biological Evaluation of Small-Molecule-Based Radioligands with Improved Pharmacokinetic Properties for Imaging of Programmed Death Ligand 1” (Journal of Medicinal Chemistry, 2023):
“And” between values parts separate entries of the source, which are not always exact repeats. Identical values can stand only once. Like-named read-outs stand apart in the source and are kept apart here.

Legend:
[1] = Proteolytic stability in human serum, radio-HPLC; assay type: in vitro ADME; conditions: 37 °C
Protocol: Potential degradation of the ^64Cu-labeled radiotracers by proteolysis was investigated by incubation in human serum at 37 °C for up to 48 h. At three different time points (1, 24, and 48 h), a sample was withdrawn, and serum proteins were precipitated. The radio-HPLC chromatograms of all ^64Cu-labeled radiotracers (Figure S111A–D, system D) show a major peak at ∼6.4–6.7 min indicating the radiotracers. After 1 h, the radiotracers [^64Cu]Cu-3–6 are 94.1, 98.3, 94.0, and 96.3% intact, respectively.
Similar to PBS stability studies, the mixture containing the radiolabeled compound was diluted 1:10 with human serum. The solution was incubated at 37 °C with shaking at 300 rpm. At each time point (1, 24, and 48 h), an aliquot was withdrawn and added to a double amount of “supersol” (water containing 20% v/v EtOH, 5% v/v 5 mM aqueous EDTA, 0.5% v/v Triton X-100, 0.1% m/v saponin, 0.05% v/v 0.5 mM aqueous o-phenanthroline) to precipitate serum proteins. The suspension was cooled on ice for 5 min and then centrifugated for 5 min at 12,000g. A small amount of the supernatant was analyzed by radio-HPLC (PerkinElmer, Massachusetts, United States system D, Supporting Information). Evaluation and graphical plotting were performed with OriginPro 9.0.

PC3 mock tumor = test: Small-animal PET, uptake in mock tumor; conditions: for SUVmax PC3 mock tumor: tracer only; for SUVmax PC3 mock tumor +block: blocker i.v. before tracer: Cu-1 100 nmol 1, Cu-2 100 nmol 2, Cu-3 1000 nmol 4, Cu-4 500 nmol 4, Cu-6 250 nmol 1 (~5 min prior), Cu-5 100 nmol 5 (~30 min prior); for blocking effect on SUVmax in the mock tumor: 24–25 h p.i., blocker: Cu-1, Cu-2 100 nmol unlabeled compound, Cu-3 1000 nmol 4
Protocol: Changes are reported as % change of the SUVmax of the PD-L1 expressing over the respective value of the mock tumor. Similarly, the effect of blocking is reported as % change of the SUVmax of the animal injected with cold compound over that of the animal that received tracer only.
Animal experiments were performed in accordance with the guidelines of the German Regulations for Animal Welfare, approved by the Saxonian Ethical Committee for Animal Experiments (reference number DD24.1-5131/449/49). Male athymic NMRI-nude mice (Rj: NMRI-Foxn1^nu/nu, Janvier Laboratories, Le Genest-Saint-Isle, France) between 8 and 22 weeks of age were used. Under general anesthesia, [∼10% desflurane (Baxter, Deerfield, IL, USA) in 30 vol % oxygen + air] and warming, the animals were subcutaneously injected with 3–5 × 10^6 PC3-PD-L1 and PC3-mock cells [in 50 μL PBS +50 μL Matrigel (Corning, Glendale, USA)] into the right and left thigh, respectively. Tumor growth was monitored three times a week by caliper measurements, and mice with tumor sizes above 7 mm were included in the experiments.
For PET studies, general anesthesia was induced as described above. PET and X-ray computed tomography (CT) were performed in a dedicated small animal nanoScan PET/CT scanner, with four animals imaged simultaneously (Mediso, Budapest, Hungary). CT images were employed for attenuation correction and anatomical referencing. Animals received three individual scans corresponding to 0–2 h (dynamic) and 4.5 and 24 h (static) postinjection.
PD-L1 radiotracer candidates (in 300 μL sterile 0.9% NaCl/HEPES buffer, pH 6–7, between 7 and 12 MBq, molar activities > 12 GBq/μmol) were delivered over 30 s i.v. (lateral tail vein) and PET acquisition started simultaneously. For blocking condition, a defined quantity of compound (the same unlabeled compound, one from the same series or BMS-1166) was diluted in sterile saline and injected i.v. approximately 5 min prior to the radiotracer. Animals not subjected to blocking were injected with vehicle at the same time.
Three-dimensional list mode data were binned using the 400–600 keV energy window and sorted into 36 time frames (15 × 10 s, 5 × 30 s, 5 × 60 s, 4 × 300 s, 3 × 600 s, 4 × 900 s). Time frames were reconstructed using the Tera-TomoTM 3D algorithm applying a voxel size of 0.4 mm and corrections for decay, scatter, and attenuation.
Three-dimensional volumes of interest were delineated applying fixed thresholding at 35% of the measured maximum intensity. Standardized uptake values (SUV = [MBq detected activity/mL tissue]/[MBq injected activity/g body weight], […]) were determined in selected volumes of interest, among these PD-L1 and mock tumors.
14. In vivo: PET- SUV data
Standardized uptake values (SUVmax)
Supplementary table 1: In vivo standardized uptake values (SUVmax ± standard deviation) of 64Cu-labeled third series compounds [64Cu]Cu-1-6 at 1.5 (1–2), 4.5 (4–5) and 24.5 (24–25) hours
post injection (p.i.). Compounds used for blocking are described for each tracer and were intravenously injected in sterile saline at stated time before the radiotracer. Animals designated for
tracer-only received matched type and volume of vehicle at the same time.

PD-L1 = molecular target: T1, PD-L1 (Homo sapiens, UniProt Q9NZQ7); test: Saturation binding assay on live PC3 PD-L1 overexpressing cells
T1 construct: expressed in transfected cells; host or cells: PC3 cells (human prostate carcinoma), stably transduced
Protocol: For assessing the binding affinity of compounds [^64Cu]Cu-1–6, PC3 cells transduced with PD-L1 were used. Dissociation constants in equilibrium (KD) and maximum number of binding sites (Bmax) were determined in a saturation binding assay. The assays were performed with the addition of 2.5% bovine serum albumin (BSA) in the medium to prevent unspecific binding to plastic wells, as reported previously for our first radioligands.[1]
For saturation binding, cells were trypsinized (0.05% Trypsin–EDTA, Gibco, USA), counted, and diluted to ∼160,000 cells/mL. 0.25 mL of the cell solution was then added to each well of a 48-well plate (Falcon Multiwell #353078) and grown for at least 2 days.
To determine the affinity (KD) and the number of binding sites (Bmax) of the herein described PD-L1 small-molecule ligands, saturation binding was performed in at least three independent experiments, as described before.[45] Cells were brought to room temperature followed by cooling on ice (each 15 min). The medium was removed and replaced with 200 μL assay buffer [PBS + 2.5% (w/v) BSA] for total binding (TB) conditions or assay buffer containing 300 μM BMS-1166 (in DMSO, resulting in 0.03% v/v) for the assessment NSB. After 15 min preincubation, 200 μL of each of the eight serial 1:1 dilutions (500 to 3.91 nM) of the respective radioligand was added (in triplicate). Cells were then incubated for 90 min at 4 °C, washed (3 × 1 min), and lysed in 500 μL of 0.1 M NaOH + 1% SDS. Radioactivity of the lysate was measured and decay corrected to a reference time (end of radiolabeling). An additional plate was subjected to the same conditions (preincubation, incubation, and washing) using PBS without BSA for each experiment, and the protein content of these lysates was determined by BCA assay. From CPM measurements, final values (pmol/mg protein) were calculated using the mean protein content and molar activity.
Processed data were then subjected to nonlinear iterative curve fitting (GraphPad Prism 9) to yield Bmax (in pmol/mg protein) and KD (in nM).

[2] = saturation binding, live PC3 PD-L1 overexpressing cells, 2.5% BSA, 90 min at 4 °C, mean ± SD, at least three experiments, read-out: KD
[3] = saturation binding, live PC3 PD-L1 overexpressing cells, 2.5% BSA, mean ± SD
[4] = supplementary CSV, read-out: KD [nM], saturation binding assay

T1 sequence (Q9NZQ7 19-290): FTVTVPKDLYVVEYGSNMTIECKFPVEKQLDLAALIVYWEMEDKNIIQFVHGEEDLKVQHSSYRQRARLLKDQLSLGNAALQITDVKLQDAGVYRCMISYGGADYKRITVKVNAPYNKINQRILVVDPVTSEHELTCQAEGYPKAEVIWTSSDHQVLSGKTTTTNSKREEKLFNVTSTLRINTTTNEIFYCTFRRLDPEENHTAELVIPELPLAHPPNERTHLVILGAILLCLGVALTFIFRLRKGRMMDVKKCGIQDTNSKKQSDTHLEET

Row | SMILES | intact radiotracer in human serum after 1 h [1] [%] | SUVmax PC3 mock tumor (PC3 mock tumor; 1.5 (1–2) hours p.i.) | SUVmax PC3 mock tumor +block (PC3 mock tumor; 1.5 (1–2) hours p.i.) | SUVmax PC3 mock tumor (PC3 mock tumor; 4.5 (4–5) hours p.i.) | SUVmax PC3 mock tumor +block (PC3 mock tumor; 4.5 (4–5) hours p.i.) | SUVmax PC3 mock tumor (PC3 mock tumor; 24.5 (24–25) hours p.i.) | SUVmax PC3 mock tumor +block (PC3 mock tumor; 24.5 (24–25) hours p.i.) | Kd (PD-L1; [2]) | Bmax (maximum number of binding sites) (PD-L1; [3]) | Kd (PD-L1; [4]) [nM] | blocking effect on SUVmax in the mock tumor (PC3 mock tumor) [%] | intact radiotracer in human serum at 48 h ([1]; 48 h) [%] | blocking effect in the mock tumor (PC3 mock tumor; 1–2 and 4–5 h p.i., 1000 nmol unlabeled compound 4)
1 | Cc1c(COc2cc(OCc3cncc(S(C)(=O)=O)c3)c(CN[C@@H](CS(=O)(=O)O)C(=O)NCCP(=O)(O)O)cc2Cl)cccc1-c1cccc(OCc2cn(CCCN3CCN(C(=O)CC[C@H](C(=O)O)N4CCN(CC(=O)O)CCN(CC(=O)O)CC4)CC3)nn2)c1C.[64Cu+2] [[^64Cu]Cu-4] | 98.3 | 0.8 ± 0.10 | 0.65 ± 0.05 | 0.45 ± 0.05 | 0.6 ± 0.2 | 1.25 ± 0.15 | 0.8 ± 0.3 | 82.4 ± 7.42 nM | 10.7 pmol·mg^–1 and 10.7 ± 1.34 pmol·mg^–1 | 112 |  |  | 
2 | Cc1c(COc2cc(OCc3cncc(C#N)c3)c(CN[C@@H](CS(=O)(=O)O)C(=O)NCCS(=O)(=O)O)cc2Cl)cccc1-c1cccc(OCc2cn(CCCN3CCN(C(=O)[C@H](CS(=O)(=O)O)NC(=O)CC[C@H](C(=O)O)N4CCN(CC(=O)O)CCN(CC(=O)O)CC4)CC3)nn2)c1C.[64Cu+2] [[^64Cu]Cu-1] |  | 1.0 | 1.4 | 0.8 | 1.0 | 1.2 | 0.7 | 80.5 ± 5.02 nM | 7.05 pmol·mg^–1 and 7.05 ± 0.99 pmol·mg^–1 |  | −41 to −54 |  | 
3 | Cc1c(COc2cc(OCc3cncc(S(C)(=O)=O)c3)c(CN[C@@H](CS(=O)(=O)O)C(=O)NCCP(=O)(O)O)cc2Cl)cccc1-c1cccc(OCc2cn(CCCN3CCN(C(=O)[C@H](CP(=O)(O)O)NC(=O)CC[C@H](C(=O)O)N4CCN(CC(=O)O)CCN(CC(=O)O)CC4)CC3)nn2)c1C.[64Cu+2] [[^64Cu]Cu-6] | 96.3 | 0.83 ± 0.08 | 1.04 ± 0.15 | 1.35 ± 0.15 | 1.7 ± 0.1 | 2.2 ± 0.2 | 3.05 ± 0.35 | 532 nM and 533 nM | 10.3 ± 0.74 pmol·mg^–1 |  |  | 93.4 | 
4 | Cc1c(COc2cc(OCc3cncc(S(C)(=O)=O)c3)c(CN[C@@H](CS(=O)(=O)O)C(=O)NCCS(=O)(=O)O)cc2Cl)cccc1-c1cccc(OCc2cn(CCCN3CCN(C(=O)[C@H](CS(=O)(=O)O)NC(=O)CC[C@H](C(=O)O)N4CCN(CC(=O)O)CCN(CC(=O)O)CC4)CC3)nn2)c1C.[64Cu+2] [[^64Cu]Cu-3] | 94.1 | 0.85 ± 0.05 | 0.80 ± 0.1 | 0.55 ± 0.15 | 0.55 ± 0.05 | 0.7 ± 0.2 | 0.45 ± 0.05 | 93.7 ± 10.8 nM | 8.51 ± 0.48 pmol·mg^–1 |  | 36 |  | negligible
5 | Cc1c(COc2cc(OCc3cncc(S(C)(=O)=O)c3)c(CN[C@@H](CS(=O)(=O)O)C(=O)NCCP(=O)(O)O)cc2Cl)cccc1-c1cccc(OCc2cn(CCCN3CCN(C(=O)[C@H](CS(=O)(=O)O)NC(=O)CC[C@H](C(=O)O)N4CCN(CC(=O)O)CCN(CC(=O)O)CC4)CC3)nn2)c1C.[64Cu+2] [[^64Cu]Cu-5] | 94.0 | 0.80 ± 0.10 | 0.75 ± 0.05 | 1.1 ± 0.1 | 0.85 ± 0.05 | 1.05 ± 0.65 | 1.6 ± 0.00 | 112 ± 11 nM | 19.1 pmol·mg^–1 and 19.1 ± 0.67 pmol·mg^–1 | 82.4 |  |  | 
